The text below walks through data of patent publication US11634381B2, “RUNX2 transcription factor inhibitors and uses thereof” (University of Maryland, Baltimore, priority 2015, dated 2023).

Where a SMILES comes first, the peptide text is derived from it. The star is where a group is joined. Cbz = O=C(OCc1ccccc1)*

One series has as its target RUNX2 (Homo sapiens, UniProt Q13950). Description: Western blot of RUNX2, RUNX1, CBF-β. The series is classed as cell-based. The arrangement: endogenous in cells; host or cells: MDA-231, MDA-468. The note with it: MDA-468 and MCF7 cells, MG132 10 μM alone, 18 hrs. Here is the method:
Whole cell lysates extracted in RIPA buffer (Upstate) were separated on 4-12% gradient SDS-PAGE and transferred to nitrocellulose membrane. The blots were incubated with specific antibodies for each protein overnight at 4° C. After antibody washing, the blots were reacted with their respective secondary antibody and detected with enhanced chemiluminescence reagents (Millipore) according to the supplier's protocol. Antibodies for proteins were purchased as below. RUNX1, RUNX2, CBF-β, ubiquitin and caspase-3 (Cell Signaling Technologies), S451-p-RUNX2 (Bioss Gentaur, Belgium), RUNX3 and Glut-1 (Millipore, Calif.), β-actin and RUNX2 antibody for IHC (Sigma-Aldrich), and Ki-67 for IHC (Bethyl Laboratories, Inc, TX).

The subject of the next series is TAZ. The series can be described thus: siRNA mediated knockdown of TAZ (Western blot). The note with it: MCF7 Tet.OFF cells, low or high RUNX2. The series is classed as cell-based, human. Here is the method: TAZ knockdown was performed in MCF7 Tet.OFF cells using Custom 23 mer desalted siRNA oligonucleotides from Sigma and a Universal Scrambled Negative Control siRNA Duplex from Origene (Catalog No. SR30004): TAZ siRNA #1: 5′-GACA […]-3′ (SEQ ID NO: 1), TAZ siRNA #2: 5′-[…] GAACAUU-3′ (SEQ ID NO: 2) and TAZ siRNA #3: 5′-[…]-3′ (SEQ ID NO: 3). Briefly, MCF7 Tet.OFF cells were grown in the absence or presence of doxycycline for 3 days and then transfected with corresponding siRNA's using Lipofectamine-2000 (Life Technologies). RIPA extracts were obtained 48 hr post transfection and total protein was analyzed by Western blot (see above) and probed for TAZ protein expression. Protein levels were normalized to actin and quantified using NIH Image-J software.
A general note: A western blot detects proteins with antibodies after separation by electrophoresis.

The next series deals with MCF7 RUNX2 Tet.OFF cells. The series can be described thus: Suspension culture tumorsphere formation. The series is classed as cell-based, human. The note with it: TAZ siRNA, TGFβ, 12 days. Here is the method:
MCF7 Tet.OFF cells were grown in the presence (+Dox, RUNX2 negative) or absence (−Dox, RUNX2 positive) of doxycycline for 3 days. Cells were then scraped and counted. 60,000 cells were plated in each well of a 6-well ultra-low attachment plate (Corning; 3471) in Promocell Basal Medium (Promocell; c-22211) complete with Supplement Mix (Promocell; c-39216). Cells were then treated with or without 2 ng/mL TGFβ (R&D Systems; 240-B-002). After growth for 10-15 days, wells were photographed and tumorsphere diameters were measured from photographic images (mm). Colony diameters were calculated using the formula: (L+W)/2. Representative photographs were obtained at 4× magnification. […] For TAZ siRNA knockdown experiments, TAZ siRNA was transfected (as below) into MCF7 Tet.OFF cells and 24 hr later cells were scraped and placed into suspension as described above. Small-Interfering RNA (siRNA) pool targeting RUNX1, RUNX2, and non-targeting control were purchased from Dharmacon, and transfected into cells using RNAiMAX Reagent (Invitrogen). Western blot analysis was performed 48 hrs after transfection.

Another series deals with Lats1/2. The series can be described thus: Lats1/2 phosphorylation (Hippo signaling). The series is classed as cell-based, human. The note with it: HCC1428 cells, rsE-Cad 24 hr. Here is the method: In FIG. 22A HCC1428 luminal BC cells that express E-Cadherin were treated with recombinant soluble E-Cadherin (rsE-Cad) for 24 hr and total cell extracts were analyzed for phosphorylation of the Lats1/2 tumor suppressors. Phospho.Lats1/2 and total Lats1/2 levels declined with rsE-Cad treatment consistent with TAZ translocation to the nucleus, where it acts as an oncogene with RUNX2. […] MCF7 cells expressing RUNX2 (Tet.OFF) were treated with compound 1 drug for 24 hours and total cell extracts were analyzed for phosphp.Lats1/2, total Lats1/2, and RUNX2 expression.

Sequence of RUNX2 (Q13950 whole entry): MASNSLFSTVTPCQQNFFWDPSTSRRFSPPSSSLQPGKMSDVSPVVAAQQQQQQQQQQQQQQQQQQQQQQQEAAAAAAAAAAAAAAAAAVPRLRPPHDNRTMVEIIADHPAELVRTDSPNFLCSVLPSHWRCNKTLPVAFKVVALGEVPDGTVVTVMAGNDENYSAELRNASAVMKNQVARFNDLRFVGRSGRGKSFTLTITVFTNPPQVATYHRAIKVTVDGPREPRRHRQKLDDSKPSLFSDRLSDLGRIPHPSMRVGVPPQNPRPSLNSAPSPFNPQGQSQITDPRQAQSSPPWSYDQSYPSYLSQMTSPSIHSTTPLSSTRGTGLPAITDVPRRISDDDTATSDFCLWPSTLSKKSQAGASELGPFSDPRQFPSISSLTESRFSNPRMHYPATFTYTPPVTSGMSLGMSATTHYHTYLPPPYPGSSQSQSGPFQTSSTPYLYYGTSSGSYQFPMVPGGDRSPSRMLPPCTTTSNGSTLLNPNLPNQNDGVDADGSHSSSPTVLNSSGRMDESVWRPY

As to `CC(C)C[C@@H](C=O)NC(=O)[C@H](CC(C)C)NC(=O)[C@H](CC(C)C)NC(=O)OCc1ccccc1` [MG132, reference compound] (Cbz-Leu-Leu-Leu-aldehyde), the RUNX2 protein stability result on RUNX2 is reported as “increased”.
With “5′-GGACAAACACCCAU GAACAUU-3′ (GGACAAACACCCAUGAACAUU; listed as RNA, chemistry not given here) [TAZ siRNA #2]”, the “TAZ knockdown to levels of control (scrambled siRNA)” value with TAZ is 50-70%. The tumorsphere size in the series on MCF7 RUNX2 Tet.OFF cells (RUNX2 negative cells) was determined as 5.16±1.91 mm; with MCF7 RUNX2 Tet.OFF cells (RUNX2 positive cells), 5.35±2.42 mm.
For the molecule “5′-AAGCCUAGCUCGUGGCGGAUU-3′ (listed as RNA, chemistry not given here) [TAZ siRNA #3]”, the “TAZ knockdown to levels of control (scrambled siRNA)” value in the series with TAZ was determined as 30%. The tumorsphere size result in the series on MCF7 RUNX2 Tet.OFF cells (RUNX2 negative cells) was “no significant effect”; in the series with MCF7 RUNX2 Tet.OFF cells (RUNX2 positive cells), 6.05±3.12 mm.
The corresponding values for “5′-GACA UGAGAUCCAUCACUAUU-3′ (GACAUGAGAUCCAUCACUAUU; listed as RNA, chemistry not given here) [TAZ siRNA #1]” are 70-80%, 4.85±2.11 mm and 4.43±1.47 mm.

B1: recombinant soluble E-Cadherin: recombinant soluble E-Cadherin (rsE-Cad) (protein, UniProt P12830 155-709, looked up)
extracellular domain: DWVIPPISCPENEKGPFPKNLVQIKSNKDKEGKVFYSITGQGADTPPVGVFIIERETGWLKVTEPLDRERIATYTLFSHAVSSNGNAVEDPMEILITVTDQNDNKPEFTQEVFKGSVMEGALPGTSVMEVTATDADDDVNTYNAAIAYTILSQDPELPDKNMFTINRNTGVISVVTTGLDRESFPTYTLVVQAADLQGEGLSTTATAVITVTDTNDNPPIFNPTTYKGQVPENEANVVITTLKVTDADAPNTPAWEAVYTILNDDGGQFVVTTNPVNNDGILKTAKGLDFEAKQQYILHVAVTNVVPFEVSLTTSTATVTVDVLDVNEAPIFVPPEKRVEVSEDFGVGQEITSYTAQEPDTFMEQKITYRIWRDTANWLEINPDTGAISTRAELDREDFEHVKNSTYTALIIATDNGSPVATGTGTLLLILSDVNDNAPIPEPRTIFFCERNPKPQVINIIDADLPPNTSPFTAELTHGASANWTIQYNDPTQESIILKPKMALEVGDYKINLKLMDNQNKDQVTTLEVSVCDCEGAAGVCRKAQPVEAGLQIPA
modifications: extracellular domain
Regarding B1, in the series on Lats1/2, the “phosphorylation of the Lats1/2 tumor suppressors” value is listed as “decline in phosphorylation”.
